ChEMBL document CHEMBL4177603 (Bioorg Med Chem Lett, 2017)
pIC50: −log10 of the molar value. ≈ marks a conversion by molar mass, not a printed value.

Assays:
[1] = molecular target: T1, Sodium channel protein type 9 subunit alpha (Homo sapiens, UniProt Q15858); assay: Inhibition of human Nav1.7 expressed in HEK cells by patch clamp electrophysiology method; assay type: cell-based
[2] = molecular target: T1, Sodium channel protein type 9 subunit alpha; assay: Inhibition of human Nav1.7 expressed in HEK cells by automated patchXpress electrophysiology method; assay type: cell-based
[3] = Solubility of the compound in aqueous buffer at pH 4.2; assay type: physicochemical
[4] = Solubility of the compound in aqueous buffer at pH 5.1; assay type: physicochemical
[5] = Solubility of the compound in aqueous buffer at pH 7.2; assay type: physicochemical
[6] = Solubility of the compound in aqueous buffer at pH 3; assay type: physicochemical
[7] = molecular target: Sodium channel protein type 5 subunit alpha (Homo sapiens, UniProt Q14524); assay: Inhibition of human Nav1.5 expressed in HEK cells by automated patchXpress electrophysiology method; assay type: ADME, cell-based
Chain of Sodium channel protein type 5 subunit alpha (Q14524 whole entry): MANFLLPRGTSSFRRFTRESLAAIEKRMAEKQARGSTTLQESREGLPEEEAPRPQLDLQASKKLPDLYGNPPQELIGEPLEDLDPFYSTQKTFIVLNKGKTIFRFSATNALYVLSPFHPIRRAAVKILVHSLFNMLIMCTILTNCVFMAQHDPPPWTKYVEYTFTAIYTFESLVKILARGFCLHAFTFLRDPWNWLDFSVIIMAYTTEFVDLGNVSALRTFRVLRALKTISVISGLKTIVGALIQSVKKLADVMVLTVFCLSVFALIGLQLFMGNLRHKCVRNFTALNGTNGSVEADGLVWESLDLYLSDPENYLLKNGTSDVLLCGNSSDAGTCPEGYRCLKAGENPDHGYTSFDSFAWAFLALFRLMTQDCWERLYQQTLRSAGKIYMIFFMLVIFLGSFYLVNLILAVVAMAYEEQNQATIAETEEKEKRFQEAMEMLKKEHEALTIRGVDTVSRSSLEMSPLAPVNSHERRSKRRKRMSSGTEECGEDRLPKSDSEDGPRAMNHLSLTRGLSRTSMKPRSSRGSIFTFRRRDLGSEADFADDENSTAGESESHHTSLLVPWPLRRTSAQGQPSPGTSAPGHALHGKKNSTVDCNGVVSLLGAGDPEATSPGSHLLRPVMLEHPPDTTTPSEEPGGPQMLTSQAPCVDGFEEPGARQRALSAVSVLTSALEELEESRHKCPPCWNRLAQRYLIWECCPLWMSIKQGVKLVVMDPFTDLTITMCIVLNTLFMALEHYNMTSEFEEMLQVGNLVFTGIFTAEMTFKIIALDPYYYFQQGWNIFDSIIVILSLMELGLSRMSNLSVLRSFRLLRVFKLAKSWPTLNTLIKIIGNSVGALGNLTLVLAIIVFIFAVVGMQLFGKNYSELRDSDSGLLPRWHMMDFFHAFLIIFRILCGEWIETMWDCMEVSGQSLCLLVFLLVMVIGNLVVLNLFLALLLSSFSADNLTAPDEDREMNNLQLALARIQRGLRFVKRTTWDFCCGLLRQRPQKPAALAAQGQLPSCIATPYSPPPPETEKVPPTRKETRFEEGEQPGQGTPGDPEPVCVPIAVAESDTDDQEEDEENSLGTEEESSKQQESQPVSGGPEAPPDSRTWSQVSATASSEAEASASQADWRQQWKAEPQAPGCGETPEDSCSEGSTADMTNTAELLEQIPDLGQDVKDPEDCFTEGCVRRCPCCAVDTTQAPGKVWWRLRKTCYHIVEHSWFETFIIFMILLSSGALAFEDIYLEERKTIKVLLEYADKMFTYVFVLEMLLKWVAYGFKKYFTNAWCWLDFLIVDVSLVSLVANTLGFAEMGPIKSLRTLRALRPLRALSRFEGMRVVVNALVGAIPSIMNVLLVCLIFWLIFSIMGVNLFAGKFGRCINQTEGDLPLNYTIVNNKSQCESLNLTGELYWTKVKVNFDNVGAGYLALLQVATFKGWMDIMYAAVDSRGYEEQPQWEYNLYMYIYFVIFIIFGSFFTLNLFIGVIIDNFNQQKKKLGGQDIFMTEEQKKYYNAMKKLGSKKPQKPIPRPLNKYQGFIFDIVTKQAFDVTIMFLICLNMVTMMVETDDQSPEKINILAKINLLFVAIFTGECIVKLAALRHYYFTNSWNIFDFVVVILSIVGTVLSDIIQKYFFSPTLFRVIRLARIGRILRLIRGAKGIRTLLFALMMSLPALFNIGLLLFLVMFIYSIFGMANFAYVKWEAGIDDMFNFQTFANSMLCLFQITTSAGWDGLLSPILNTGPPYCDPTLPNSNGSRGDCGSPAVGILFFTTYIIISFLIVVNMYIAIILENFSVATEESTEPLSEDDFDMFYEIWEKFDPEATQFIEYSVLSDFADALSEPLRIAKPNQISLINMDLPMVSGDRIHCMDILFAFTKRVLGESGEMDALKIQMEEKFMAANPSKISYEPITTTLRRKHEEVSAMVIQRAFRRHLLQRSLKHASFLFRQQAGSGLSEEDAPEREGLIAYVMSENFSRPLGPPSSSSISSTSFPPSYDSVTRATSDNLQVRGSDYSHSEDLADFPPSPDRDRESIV

T1 sequence (Q15858 whole entry): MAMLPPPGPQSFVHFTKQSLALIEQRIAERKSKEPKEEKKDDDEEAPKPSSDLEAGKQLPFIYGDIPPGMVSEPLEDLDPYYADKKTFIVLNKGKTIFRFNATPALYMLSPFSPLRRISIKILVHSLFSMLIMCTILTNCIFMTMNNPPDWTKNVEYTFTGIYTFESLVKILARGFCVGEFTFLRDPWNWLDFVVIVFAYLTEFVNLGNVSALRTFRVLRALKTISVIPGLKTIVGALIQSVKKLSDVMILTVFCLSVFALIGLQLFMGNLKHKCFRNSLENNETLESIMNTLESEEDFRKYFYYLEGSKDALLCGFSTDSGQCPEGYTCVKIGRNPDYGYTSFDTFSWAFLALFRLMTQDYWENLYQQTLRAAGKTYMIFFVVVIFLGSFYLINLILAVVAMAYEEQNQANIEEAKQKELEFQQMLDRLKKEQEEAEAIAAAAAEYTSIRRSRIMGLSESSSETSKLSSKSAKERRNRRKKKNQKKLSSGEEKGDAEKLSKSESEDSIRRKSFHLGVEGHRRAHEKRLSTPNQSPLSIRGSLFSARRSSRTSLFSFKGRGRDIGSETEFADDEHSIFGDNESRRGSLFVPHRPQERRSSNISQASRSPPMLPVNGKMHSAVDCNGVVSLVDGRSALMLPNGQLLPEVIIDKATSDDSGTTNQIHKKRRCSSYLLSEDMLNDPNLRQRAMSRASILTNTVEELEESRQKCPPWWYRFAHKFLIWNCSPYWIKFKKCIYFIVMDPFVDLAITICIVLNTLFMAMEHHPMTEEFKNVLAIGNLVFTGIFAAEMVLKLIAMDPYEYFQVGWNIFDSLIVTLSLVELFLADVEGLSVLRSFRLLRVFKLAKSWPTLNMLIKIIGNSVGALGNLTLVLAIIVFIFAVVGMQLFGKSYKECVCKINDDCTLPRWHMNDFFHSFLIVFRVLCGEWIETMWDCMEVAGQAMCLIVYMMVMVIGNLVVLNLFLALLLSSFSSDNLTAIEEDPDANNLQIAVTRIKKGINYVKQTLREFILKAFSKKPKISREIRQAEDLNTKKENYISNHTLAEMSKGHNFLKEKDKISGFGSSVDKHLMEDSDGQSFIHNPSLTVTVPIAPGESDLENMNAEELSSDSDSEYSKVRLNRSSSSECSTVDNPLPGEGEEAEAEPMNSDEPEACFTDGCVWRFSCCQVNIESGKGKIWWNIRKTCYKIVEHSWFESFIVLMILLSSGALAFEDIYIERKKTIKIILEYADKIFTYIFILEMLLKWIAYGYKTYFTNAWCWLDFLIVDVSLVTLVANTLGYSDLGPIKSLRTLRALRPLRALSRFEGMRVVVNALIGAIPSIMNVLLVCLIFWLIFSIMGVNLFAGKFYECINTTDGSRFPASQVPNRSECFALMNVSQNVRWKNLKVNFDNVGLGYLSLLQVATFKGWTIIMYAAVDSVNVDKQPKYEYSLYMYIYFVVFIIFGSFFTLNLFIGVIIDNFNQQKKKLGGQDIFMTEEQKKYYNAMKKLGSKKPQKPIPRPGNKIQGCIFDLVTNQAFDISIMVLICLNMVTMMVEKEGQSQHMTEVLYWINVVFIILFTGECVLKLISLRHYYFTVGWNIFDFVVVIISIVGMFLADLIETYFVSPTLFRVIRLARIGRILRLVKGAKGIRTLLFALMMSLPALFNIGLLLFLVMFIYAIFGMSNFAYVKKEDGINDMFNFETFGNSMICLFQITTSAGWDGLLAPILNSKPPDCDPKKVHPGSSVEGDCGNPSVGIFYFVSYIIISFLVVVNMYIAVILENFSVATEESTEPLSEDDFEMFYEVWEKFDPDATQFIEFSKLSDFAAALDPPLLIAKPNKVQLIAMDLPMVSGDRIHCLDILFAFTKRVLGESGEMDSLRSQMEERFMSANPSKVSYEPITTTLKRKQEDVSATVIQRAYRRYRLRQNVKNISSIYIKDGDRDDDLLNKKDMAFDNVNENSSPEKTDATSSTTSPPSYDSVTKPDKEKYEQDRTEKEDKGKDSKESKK

| pIC50 [1] | pIC50 [2] | Structure (SMILES) | other results |
| --- | --- | --- | --- |
| 9.92 |  | Cc1cc(C)n2c1C=C1C=CC(CCCCC(=O)NCCOCCOCCC(=O)N3CCC(CCNCc4cc(-c5cc(-c6cccc(C(F)(F)F)c6)ccc5Oc5ccc(S(=O)(=O)Nc6ncns6)cc5C#N)ccn4)CC3)=[N+]1[B-]2(F)F |  |
|  | 7.88 | O=S(=O)(Nc1cscn1)c1cc(Cl)c(Oc2ccc(Cl)cc2-c2ccnc(CN3CCC3)c2)cc1F |  |
|  | 9.15 | N#Cc1cc(S(=O)(=O)Nc2ncns2)ccc1Oc1ccc(Cl)cc1-c1cccc(CNCCC2CCNCC2)c1 |  |
|  |  | NCc1cc(-c2cc(-c3cccc(C(F)(F)F)c3)ccc2Oc2cc(F)c(S(=O)(=O)Nc3nncs3)cc2Cl)ccn1 | solubility [3]: < 0.5 µg/mL; solubility [4]: < 0.5 µg/mL; solubility [5]: < 0.5 µg/mL; solubility [6]: 6 µg/mL (≈ 9.43 µM) |
| 10.00 |  | N#Cc1cc(S(=O)(=O)Nc2ncns2)ccc1Oc1ccc(-c2cccc(C(F)(F)F)c2)cc1-c1ccnc(CN)c1 |  |
| 10.00 |  | C#CCCOc1ccc(C(=O)c2ccc(CCC(=O)N3CCC(CCNCc4cc(-c5cc(-c6cccc(C(F)(F)F)c6)ccc5Oc5ccc(S(=O)(=O)Nc6ncns6)cc5C#N)ccn4)CC3)cc2)cc1 |  |
|  | > 8.00 | COCCOCCOCCOCCOCCOCCOCCOCCOCCOCCOCCOCCC(=O)N1CCC(CCNCc2cc(-c3cc(-c4cccc(C(F)(F)F)c4)ccc3Oc3ccc(S(=O)(=O)Nc4ncns4)cc3C#N)ccn2)CC1 | pIC50 [7]: < 5.52 |
|  | > 8.40 | CC(=O)N1CCC(CCNCc2cc(-c3cc(-c4cccc(C(F)(F)F)c4)ccc3Oc3ccc(S(=O)(=O)Nc4ncns4)cc3C#N)ccn2)CC1 |  |
|  | 8.32 | O=S(=O)(Nc1nncs1)c1cc(Cl)c(Oc2ccc(Cl)cc2-c2ccnc(CN3CCC3)c2)cc1F |  |

| Structure (SMILES) | pIC50 [1] | pIC50 [2] | other results |
| --- | --- | --- | --- |
| N#Cc1cc(S(=O)(=O)Nc2ncns2)ccc1Oc1ccc(Cl)cc1-c1cccc(CN)c1 |  | 8.07 |  |
